Measured values: patent EP0603412A1, “COMPOUNDS BASED ON PALLADIUM AND ON DERIVATIVES OF AROMATIC AMINES AND METHOD OF OBTAINING THEM” (priority 1992, dated 1993)
Read-outs that look alike come from different tables or passages of the source.

Key:
male mice F1(CBA57BL) = conditions: single administration
Protocol: Tests were carried out on male hybrid mice F₁(CBAxC₅₇BL). About two thousands animals have been used in tests.
Acute toxicity off the invention compounds was determined in experiments on mice after a single intravenous and intraperitoneal administration. Tested compounds were injected in the form of 0.1 to 1.0 wt% solutions by syringe with the entry needle. Intraperitoneal route was effected by administering a suspension of the compounds in 1% starch size using a syringe and a metal probe. […] Toxicity doses were calculated and statistically processed via Litchfield-Wilcoxon technique modified by Z.Rott.

[1] = tested on: male hybrid mice F₁(CBAxC₅₇BL); experiment: Radiomodifying effect under single total γ-irradiation (survival, LD50/8, LD50/30, DCF); assay type: in vivo; conditions: for DCF: based on LD50/30; for LD50/30: mouse, in vivo
Protocol: About two thousands animals have been used in tests.
Before irradiation control group of animals was intravenously administered isotonic saline solution in amount of 0.3 ml per mouse.
(§1) The mice were placed into the glass containers inserted into irradiation zone. The radiation sources were arranged in the form of "squirrel cage". The radiation doses were established by duration of the stay in active zone. […] The animals were irradiated in the range from 4.0 to 10 Gr.
(§2) A survival rate was determined on the 8th and 30th day of observation. From the data obtained were derived the curves illustrating a dependence of the survival rate upon a radiation dosage on a percentage basis. LD50/8 and LD50/30 values were estimated by extrapolation to the dosage scale.
(§3) A radiomodifying effect was evaluated by a dose change factor (DCF) calculated from the ratio of LD₅₀ in test to LD₅₀ in control.

mice [2] = experiment: Radiomodifying effect under two-fold γ-irradiation at 4 hours intervals; assay type: in vivo; conditions: for Survival rate: 1st fraction 4.0 Gr; for DCF: two-fold irradiation
Protocol: as §1
A survival rate was determined on the 8th and 30th day of observation. From the data obtained were derived the curves illustrating a dependence of the survival rate upon a radiation dosage on a percentage basis.
as §3

mice [3] = experiment: Radiomodifying effect under five-fold γ-irradiation at 24 hours intervals; assay type: in vivo; conditions: 10 mg/kg, 15 min after each fraction
Protocol: as §1, §2, §3

[4] = 10mg/kg 15 min after irradiation (Table 7)
[5] = 10mg/kg 15 min after irradiation, irradiation dose 7.5 Gr
[6] = 10mg/kg 15 min after irradiation, irradiation dose 8.0 Gr
[7] = 10mg/kg 15 min after irradiation, irradiation dose 8.5 Gr
[8] = system Ephazole/0.9% NaCl, calculated from literature equilibrium constants

Row | Substance | LD10 (male mice F1(CBA57BL); i.v.) [mg/kg] | LD50 (male mice F1(CBA57BL); i.v., observed for a month) | DCF [1, 4] | Survival rate [1, 5] [%] | Survival rate [1, 6] [%] | Survival rate [1, 7] [%] | LD50/30 [1] [Gr] | other results
1 | N-ethyl-N-[2-hydroxy-2(4-hydroxyphenyl)ethyl]ammonium palladium tetrachloride [Compound 5] | 10 | 15(16.8-13.2) mg/kg | 1.07 | 70 | 20 | 0 | 8.25 | DCF ([1]; 10mg/kg 15 min before irradiation (Table 7)): 1.14; Survival rate ([1]; 10mg/kg 15 min before irradiation, irradiation dose 7.5 Gr): 90%; Survival rate ([1]; 10mg/kg 15 min before irradiation, irradiation dose 8.0 Gr): 70%; Survival rate ([1]; 10mg/kg 15 min before irradiation, irradiation dose 8.5 Gr): 30%; LD50/30 ([1]; listed as compound 5): 7.75 Gr
2 | N-methyl-N-(1-phenyl-1-hydroxy-prop-2-yl)ammonium palladium tetrachloride [Ephazole] | 110 | – | – | – | – | – | – | Survival rate (mice [2]; 10 mg/kg i.v. within 15 min after 1st and 2nd fraction, 2nd fraction 5.0 Gr): 90%; Survival rate (mice [2]; 10 mg/kg i.v. within 15 min after 1st and 2nd fraction, 2nd fraction 5.5 Gr): 60%; Survival rate (mice [2]; 10 mg/kg i.v. within 15 min after 1st and 2nd fraction, 2nd fraction 6.0 Gr): 20%; DCF (mice [2]; 10 mg/kg i.v. within 15 min after 1st and 2nd fraction): 1.11; Survival rate (mice [2]; 10 mg/kg i.v. within 15 min after 1st fraction, 2nd fraction 4.5 Gr): 90%; Survival rate (mice [2]; 10 mg/kg i.v. within 15 min after 1st fraction, 2nd fraction 5.0 Gr): 70%; Survival rate (mice [2]; 10 mg/kg i.v. within 15 min after 1st fraction, 2nd fraction 5.5 Gr): 30%; DCF (mice [2]; 10 mg/kg i.v. within 15 min after 1st fraction): 1.06; LD10 (male mice F1(CBA57BL); i.p.): 180 mg/kg; time for using a 0.4% solution (0.4% solution in isotonic saline medium, 25°C): not over one hour; temperature over which solutions could not be heated (0.9% NaCl solutions tested at 4, 25, 40 and 100°C): ≤ 40 °C; content of [PdCl₃(H₂O)]⁻ anion under equilibrium conditions [8]: 21.3%; content of [PdCl₄]²⁻ under equilibrium conditions [8]: 78.7%; state in aqueous solutions (water as vehicle, 20 mg/10 ml and 40 mg/10 ml): profound hydrolysis; DCF (mice [3]): 1.47
3 | N-methyl-N-(2-phenyl-2-hydroxypropyl)ammonium palladium tetrachloride [Compound 4] | 75 | 100(109.5-91.5) mg/kg | 1.07 | 80 | 20 | 10 | 7.75 | –
4 | N-[1,3-dihydroxy-1-(4-nitrophenyl)-prop-2-yl]ammonium palladium tetrachloride [Compound 3] | 70 | 90(97.5-82.5) mg/kg | 1.07 | 60 | 30 | 0 | 7.7 | –
5 | N-methyl-N-[2-hydroxy-2(4-nitrophenyl)ethyl]ammonium palladium tetrachloride [Compound 2] | – | – | 1.10 | 70 | 30 | – | 8.0 | LD10 (male mice F1(CBA57BL); i.g.): 63 mg/kg; LD50 (male mice F1(CBA57BL); i.g.): 95(107-83) mg/kg; Survival rate ([1]; 10mg/kg 15 min after irradiation, irradiation dose 7.0 Gr): 90%
